Results from patent publication US20130225508A1, “PEPTIDE CAPABLE OF BINDING TO IMMUNOGLOBULIN” (priority 2010, published 2013).

System: adjuvant-induced arthritis
Assay: Adjuvant arthritis rat model
Assay type: in vivo, Lewis/CrlCrlj rats
Design: key to Redness scores (left hind-limb) / Redness scores (right hind-limb): 0 = no redness, 4 = severe redness; key to Scores of swelling in the instep (left hind-limb) / Scores of swelling in the instep (right hind-limb): 0 = no swelling, 4 = severe swelling; key to Scores of swelling in knuckle joints (left hind-limb) / Scores of swelling in knuckle joints (right hind-limb): 0 = no swelling, 4 = swelling of all the digits
From the text: Male Lewis/CrlCrlj (SPF) rats were used to investigate the arthritis suppressing effect of a peptide of the present invention on adjuvant-induced arthritis. Forty-five rats were purchased from Charles River Laboratories Japan, Inc., and fed normal chow and allowed to acclimate for 7 days before used (the range of body weights was from 193.3 to 218.3 g at the beginning of use).
In an agate motor, dead tubercle bacilli (Mycobacterium butyricum; Lot No. 0260570, Difco) were pulverized. Then, liquid paraffin was added in small amounts to spread the pulverized bacilli well, so as to allow them to be emulsified at 1.0 mg/mL. The resultant emulsion was used after verification to ensure that the pulverized bacilli had been allowed to be finely emulsified, using an NM MICRONIZER (Nippon Seiki Co., Ltd.).
A right hind-limb of the respective rats was exposed, and 100 μL of the emulsion was intradermally injected once into a footpad of the right hind-limb using a 25G-needle attached syringe, to cause arthritis (day 0).
Each of the groups was comprised of 5 animals.
Arthritis was evaluated only for the hind-limbs, based on the criteria described below:
Score 0: no swelling Score 1: swelling of not more than two digits Score 2: swelling of three digits Score 3: swelling of four digits Score 4: swelling of all the digits
Score 0: no swelling Score 1: mild swelling Score 2: modest swelling Score 3: rather severe swelling Score 4: severe swelling
Score 0: no redness Score 1: mild redness Score 2: modest redness Score 3: rather severe redness Score 4: severe redness (iii) Measurement of Foot Volumes of Left And Right Hind-Limbs
Measurement was performed using a plethysmometer (UNICOM TK105). The increasing rate foot volume (percentage of paw swelling, paw swelling %) was calculated by the following formula:
Percent paw swelling (%)=[(Vt−Vo)/Vo]×100
In addition, in these examinations, the percent change of edema relative to day 10 post-adjuvant was calculated, in order to assess the effect of treatment with the test substances.
Data are expressed by mean±standard error. Since the uniformity of variance was not verified in testing between the negative and the positive control groups, testing for significant difference was performed by Aspin-Welch t-test. Since the uniformity of variance was not verified in testing for significant differences of the respective test-substance administered groups relative to the positive control group, assessment was performed by Dunnett's multiple comparison test after Kruskal-Wallis testing, using non-parametric procedures. Differences were considered to be statistically significant at p values of less than 0.05.

[1] = Day 0 post-adjuvant, 0.15 mg/kg oral from day 10
[2] = Day 0 post-adjuvant, 0.15 mg/kg oral, pre-administered group
[3] = Day 3 post-adjuvant, 0.15 mg/kg oral from day 10
[4] = Day 3 post-adjuvant, 0.15 mg/kg oral, pre-administered group
[5] = Day 7 post-adjuvant, 0.15 mg/kg oral from day 10
[6] = Day 7 post-adjuvant, 0.15 mg/kg oral, pre-administered group
[7] = Day 10 post-adjuvant, 0.15 mg/kg oral from day 10
[8] = Day 10 post-adjuvant, 0.15 mg/kg oral, pre-administered group
[9] = Day 14 post-adjuvant, 0.15 mg/kg oral from day 10
[10] = Day 14 post-adjuvant, 0.15 mg/kg oral, pre-administered group
[11] = Day 17 post-adjuvant, 0.15 mg/kg oral from day 10
[12] = Day 17 post-adjuvant, 0.15 mg/kg oral, pre-administered group
[13] = Day 21 post-adjuvant, 0.15 mg/kg oral from day 10
[14] = Day 21 post-adjuvant, 0.15 mg/kg oral, pre-administered group

Structure (SMILES): CN(Cc1cnc2nc(N)nc(N)c2n1)c1ccc(C(=O)N[C@@H](CCC(=O)O)C(=O)O)cc1 [Methotrexate]
- Redness scores (left hind-limb) [1]: 0.0 ± 0.0
- Redness scores (right hind-limb) [1]: 0.0 ± 0.0
- Scores of swelling in knuckle joints (left hind-limb) [1]: 0.0 ± 0.0
- Scores of swelling in knuckle joints (right hind-limb) [1]: 0.0 ± 0.0
- Scores of swelling in the instep (left hind-limb) [1]: 0.0 ± 0.0
- Scores of swelling in the instep (right hind-limb) [1]: 0.0 ± 0.0
- Total scores (left hind-limb) [1]: 0.0 ± 0.0
- Total scores (right hind-limb) [1]: 0.0 ± 0.0
- Redness scores (left hind-limb) [2]: 0.0 ± 0.0
- Redness scores (right hind-limb) [2]: 0.0 ± 0.0
- Scores of swelling in knuckle joints (left hind-limb) [2]: 0.0 ± 0.0
- Scores of swelling in knuckle joints (right hind-limb) [2]: 0.0 ± 0.0
- Scores of swelling in the instep (left hind-limb) [2]: 0.0 ± 0.0
- Scores of swelling in the instep (right hind-limb) [2]: 0.0 ± 0.0
- Total scores (left hind-limb) [2]: 0.0 ± 0.0
- Total scores (right hind-limb) [2]: 0.0 ± 0.0
- Redness scores (left hind-limb) [3]: 0.0 ± 0.0
- Redness scores (right hind-limb) [3]: 0.0 ± 0.0
- Scores of swelling in knuckle joints (left hind-limb) [3]: 0.0 ± 0.0
- Scores of swelling in knuckle joints (right hind-limb) [3]: 0.0 ± 0.0
- Scores of swelling in the instep (left hind-limb) [3]: 0.0 ± 0.0
- Scores of swelling in the instep (right hind-limb) [3]: 0.0 ± 0.0
- Total scores (left hind-limb) [3]: 0.0 ± 0.0
- Total scores (right hind-limb) [3]: 0.0 ± 0.0
- Redness scores (left hind-limb) [4]: 0.0 ± 0.0
- Redness scores (right hind-limb) [4]: 0.0 ± 0.0
- Scores of swelling in knuckle joints (left hind-limb) [4]: 0.0 ± 0.0
- Scores of swelling in knuckle joints (right hind-limb) [4]: 0.0 ± 0.0
- Scores of swelling in the instep (left hind-limb) [4]: 0.0 ± 0.0
- Scores of swelling in the instep (right hind-limb) [4]: 0.0 ± 0.0
- Total scores (left hind-limb) [4]: 0.0 ± 0.0
- Total scores (right hind-limb) [4]: 0.0 ± 0.0
- Redness scores (left hind-limb) [5]: 0.0 ± 0.0
- Redness scores (right hind-limb) [5]: 0.4 ± 0.2
- Scores of swelling in knuckle joints (left hind-limb) [5]: 0.4 ± 0.2
- Scores of swelling in knuckle joints (right hind-limb) [5]: 0.6 ± 0.2
- Scores of swelling in the instep (left hind-limb) [5]: 0.0 ± 0.0
- Scores of swelling in the instep (right hind-limb) [5]: 1.2 ± 0.2
- Total scores (left hind-limb) [5]: 0.4 ± 0.5
- Total scores (right hind-limb) [5]: 2.2 ± 0.8
- Redness scores (left hind-limb) [6]: 0.0 ± 0.0
- Redness scores (right hind-limb) [6]: 0.2 ± 0.2
- Scores of swelling in knuckle joints (left hind-limb) [6]: 0.0 ± 0.0
- Scores of swelling in knuckle joints (right hind-limb) [6]: 0.4 ± 0.2
- Scores of swelling in the instep (left hind-limb) [6]: 0.0 ± 0.0
- Scores of swelling in the instep (right hind-limb) [6]: 0.0 ± 0.0
- Total scores (left hind-limb) [6]: 0.0 ± 0.0
- Total scores (right hind-limb) [6]: 0.6 ± 0.4
- Redness scores (left hind-limb) [7]: 0.4 ± 0.2
- Redness scores (right hind-limb) [7]: 1.4 ± 0.4
- Scores of swelling in knuckle joints (left hind-limb) [7]: 0.6 ± 0.2
- Scores of swelling in knuckle joints (right hind-limb) [7]: 1.6 ± 0.4
- Scores of swelling in the instep (left hind-limb) [7]: 0.6 ± 0.2
- Scores of swelling in the instep (right hind-limb) [7]: 1.4 ± 0.4
- Total scores (left hind-limb) [7]: 1.6 ± 0.5
- Total scores (right hind-limb) [7]: 4.4 ± 1.5
- Redness scores (left hind-limb) [8]: 0.0 ± 0.0
- Redness scores (right hind-limb) [8]: 0.0 ± 0.0
- Scores of swelling in knuckle joints (left hind-limb) [8]: 0.2 ± 0.2
- Scores of swelling in knuckle joints (right hind-limb) [8]: 0.2 ± 0.2
- Scores of swelling in the instep (left hind-limb) [8]: 0.0 ± 0.0
- Scores of swelling in the instep (right hind-limb) [8]: 0.4 ± 0.2
- Total scores (left hind-limb) [8]: 0.2 ± 0.2
- Total scores (right hind-limb) [8]: 0.6 ± 0.4
- Redness scores (left hind-limb) [9]: 0.2 ± 0.2
- Redness scores (right hind-limb) [9]: 1.0 ± 0.3
- Scores of swelling in knuckle joints (left hind-limb) [9]: 0.8 ± 0.2
- Scores of swelling in knuckle joints (right hind-limb) [9]: 1.2 ± 0.2
- Scores of swelling in the instep (left hind-limb) [9]: 0.2 ± 0.2
- Scores of swelling in the instep (right hind-limb) [9]: 1.4 ± 0.4
- Total scores (left hind-limb) [9]: 1.2 ± 0.6
- Total scores (right hind-limb) [9]: 3.6 ± 1.1
- Redness scores (left hind-limb) [10]: 0.0 ± 0.0
- Redness scores (right hind-limb) [10]: 0.2 ± 0.2
- Scores of swelling in knuckle joints (left hind-limb) [10]: 0.4 ± 0.2
- Scores of swelling in knuckle joints (right hind-limb) [10]: 0.8 ± 0.2
- Scores of swelling in the instep (left hind-limb) [10]: 0.0 ± 0.0
- Scores of swelling in the instep (right hind-limb) [10]: 0.8 ± 0.2
- Total scores (left hind-limb) [10]: 0.4 ± 0.2
- Total scores (right hind-limb) [10]: 1.8 ± 0.2
- Redness scores (left hind-limb) [11]: 0.6 ± 0.4
- Redness scores (right hind-limb) [11]: 1.2 ± 0.2
- Scores of swelling in knuckle joints (left hind-limb) [11]: 0.4 ± 0.2
- Scores of swelling in knuckle joints (right hind-limb) [11]: 0.6 ± 0.2
- Scores of swelling in the instep (left hind-limb) [11]: 0.8 ± 0.6
- Scores of swelling in the instep (right hind-limb) [11]: 2.0 ± 0.4
- Total scores (left hind-limb) [11]: 1.8 ± 1.4
- Total scores (right hind-limb) [11]: 3.8 ± 0.9
- Redness scores (left hind-limb) [12]: 0.4 ± 0.4
- Redness scores (right hind-limb) [12]: 0.8 ± 0.4
- Scores of swelling in knuckle joints (left hind-limb) [12]: 0.6 ± 0.2
- Scores of swelling in knuckle joints (right hind-limb) [12]: 1.0 ± 0.3
- Scores of swelling in the instep (left hind-limb) [12]: 0.4 ± 0.2
- Scores of swelling in the instep (right hind-limb) [12]: 1.4 ± 0.2
- Total scores (left hind-limb) [12]: 1.4 ± 0.7
- Total scores (right hind-limb) [12]: 3.2 ± 0.8
- Redness scores (left hind-limb) [13]: 0.6 ± 0.6
- Redness scores (right hind-limb) [13]: 1.2 ± 0.5
- Scores of swelling in knuckle joints (left hind-limb) [13]: 0.6 ± 0.6
- Scores of swelling in knuckle joints (right hind-limb) [13]: 0.8 ± 0.6
- Scores of swelling in the instep (left hind-limb) [13]: 0.6 ± 0.6
- Scores of swelling in the instep (right hind-limb) [13]: 2.2 ± 0.6
- Total scores (left hind-limb) [13]: 1.8 ± 2.3
- Total scores (right hind-limb) [13]: 4.2 ± 2.0
- Redness scores (left hind-limb) [14]: 0.2 ± 0.2
- Redness scores (right hind-limb) [14]: 0.8 ± 0.2
- Scores of swelling in knuckle joints (left hind-limb) [14]: 0.4 ± 0.2
- Scores of swelling in knuckle joints (right hind-limb) [14]: 0.8 ± 0.2
- Scores of swelling in the instep (left hind-limb) [14]: 0.2 ± 0.2
- Scores of swelling in the instep (right hind-limb) [14]: 1.2 ± 0.4
- Total scores (left hind-limb) [14]: 0.8 ± 0.6
- Total scores (right hind-limb) [14]: 2.8 ± 0.6
